Data reported in patent US12435031B2, “Compound with broad-spectrum antibacterial activity and its antibacterial composition” (CHINA AGRICULTURAL UNIVERSITY, priority 2023, dated 2025).
Converted amounts (≈) assume the structure as drawn. Like-named read-outs stand apart in the source and are kept apart here.

Tested on: Clostridium perfringens
Assay: microbe, parasite or virus in culture
Format: cell-based
[1] = Clostridium perfringens, read-out: MIC value against Clostridium perfringens, strain A3-1 (A-type)
[2] = Clostridium perfringens, read-out: MIC value against Clostridium perfringens, strain A3-2 (A-type)
[3] = Clostridium perfringens, read-out: MIC value against Clostridium perfringens, strain A57-1 (A-type)
[4] = Clostridium perfringens, read-out: MIC value against Clostridium perfringens, strain B4 (B-type)
[5] = Clostridium perfringens, read-out: MIC value against Clostridium perfringens, strain B5 (B-type)
[6] = Clostridium perfringens, read-out: MIC value against Clostridium perfringens, strain C3 (C-type)
[7] = Clostridium perfringens, read-out: MIC value against Clostridium perfringens, strain C8 (C-type)
[8] = Clostridium perfringens, read-out: MIC value against Clostridium perfringens, strain C59-1 (C-type)
[9] = Clostridium perfringens, read-out: MIC value against Clostridium perfringens, strain D14B (D-type)
[10] = Clostridium perfringens, read-out: MIC value against Clostridium perfringens, strain F5-2 (F-type)
[11] = Clostridium perfringens, read-out: MIC value against Clostridium perfringens, strain F6-1 (F-type)
[12] = Clostridium perfringens, read-out: MIC value against Clostridium perfringens, strain F6-2 (F-type)
[13] = Clostridium perfringens, read-out: MIC value against Clostridium perfringens, strain F6-2-1 (F-type)
[14] = Clostridium perfringens, read-out: MIC value against Clostridium perfringens, strain F6-2-2 (F-type)
[15] = Clostridium perfringens, read-out: MIC value against Clostridium perfringens, strain F7-1 (F-type)
[16] = Clostridium perfringens, read-out: MIC value against Clostridium perfringens, strain F8-1 (F-type)
[17] = Clostridium perfringens, read-out: MIC value against Clostridium perfringens, strain H12-1 (H-type)
[18] = Clostridium perfringens, read-out: MIC value against Clostridium perfringens, strain H12-2 (H-type)
[19] = Clostridium perfringens, read-out: MIC value against Clostridium perfringens, strain H13-1 (H-type)
[20] = Clostridium perfringens, read-out: MIC value against Clostridium perfringens, strain H14-1 (H-type)
[21] = Clostridium perfringens, read-out: MIC value against Clostridium perfringens, strain H14-2 (H-type)
[22] = Clostridium perfringens, read-out: MIC value against Clostridium perfringens, strain H14-4 (H-type)
[23] = Clostridium perfringens, read-out: MIC value against Clostridium perfringens, strain H15-1 (H-type)
[24] = Clostridium perfringens, read-out: MIC value against Clostridium perfringens, strain H15-2 (H-type)
[25] = Clostridium perfringens, read-out: MIC value against Clostridium perfringens, strain H15-3 (H-type)
[26] = Clostridium perfringens, read-out: MIC value against Clostridium perfringens, strain H16 (H-type)

CCC[C@@H]1C[C@@H](C(=O)N[C@@H]([C@H]2O[C@H](SC)[C@H](O)[C@@H](O)[C@H]2O)[C@@H](C)O)N(C)C1 [LIN, Lincomycin]
MIC50 (Clostridium perfringens): 8 µg/mL (≈ 19.7 µM) | MIC90 (Clostridium perfringens): > 128 µg/mL | MIC [1]: 1 µg/mL (≈ 2.46 µM) | MIC [2]: 0.5 µg/mL (≈ 1.23 µM) | MIC [3]: 2 µg/mL (≈ 4.92 µM) | MIC [4]: > 128 µg/mL | MIC [5]: > 128 µg/mL | MIC [6]: > 128 µg/mL | MIC [7]: 128 µg/mL (≈ 315 µM) | MIC [8]: 0.5 µg/mL (≈ 1.23 µM) | MIC [9]: 64 µg/mL (≈ 157 µM) | MIC [10]: 128 µg/mL (≈ 315 µM) | MIC [11]: 32 µg/mL (≈ 78.7 µM) | MIC [12]: 32 µg/mL (≈ 78.7 µM) | MIC [13]: 128 µg/mL (≈ 315 µM) | MIC [14]: 128 µg/mL (≈ 315 µM) | MIC [15]: > 128 µg/mL | MIC [16]: > 128 µg/mL | MIC [17]: 0.5 µg/mL (≈ 1.23 µM) | MIC [18]: ≤ 0.25 µg/mL | MIC [19]: 4 µg/mL (≈ 9.84 µM) | MIC [20]: 8 µg/mL (≈ 19.7 µM) | MIC [21]: 8 µg/mL (≈ 19.7 µM) | MIC [22]: 4 µg/mL (≈ 9.84 µM) | MIC [23]: ≤ 0.25 µg/mL | MIC [24]: 4 µg/mL (≈ 9.84 µM) | MIC [25]: 4 µg/mL (≈ 9.84 µM) | MIC [26]: 4 µg/mL (≈ 9.84 µM)

Cc1c(C(=O)C=Cc2ccccc2)[n+](=O)c2ccccc2n1[O-] [QCT, Quincetone]
MIC value against Clostridium perfringens (strain A3-1 (A-type)): 0.5 µg/mL (≈ 1.63 µM) | MIC value against Clostridium perfringens (strain A3-2 (A-type)): ≤0.25 µg/mL | MIC value against Clostridium perfringens (strain A57-1 (A-type)): ≤0.25 µg/mL | MIC value against Clostridium perfringens (strain B4 (B-type)): ≤0.25 µg/mL | MIC value against Clostridium perfringens (strain B5 (B-type)): ≤0.25 µg/mL | MIC value against Clostridium perfringens (strain C3 (C-type)): 1 µg/mL (≈ 3.26 µM) | MIC value against Clostridium perfringens (strain C8 (C-type)): ≤0.25 µg/mL | MIC value against Clostridium perfringens (strain C59-1 (C-type)): ≤0.25 µg/mL | MIC value against Clostridium perfringens (strain D14B (D-type)): ≤0.25 µg/mL | MIC value against Clostridium perfringens (strain F5-2 (F-type)): 0.5 µg/mL (≈ 1.63 µM) | MIC value against Clostridium perfringens (strain F6-1 (F-type)): 4 µg/mL (≈ 13.1 µM) | MIC value against Clostridium perfringens (strain F6-2 (F-type)): 0.5 µg/mL (≈ 1.63 µM) | MIC value against Clostridium perfringens (strain F6-2-1 (F-type)): 1 µg/mL (≈ 3.26 µM) | MIC value against Clostridium perfringens (strain F6-2-2 (F-type)): ≤0.25 µg/mL | MIC value against Clostridium perfringens (strain F7-1 (F-type)): ≤0.25 µg/mL | MIC value against Clostridium perfringens (strain F8-1 (F-type)): 0.5 µg/mL (≈ 1.63 µM) | MIC value against Clostridium perfringens (strain H12-1 (H-type)): ≤0.25 µg/mL | MIC value against Clostridium perfringens (strain H12-2 (H-type)): ≤0.25 µg/mL | MIC value against Clostridium perfringens (strain H13-1 (H-type)): ≤0.25 µg/mL | MIC value against Clostridium perfringens (strain H14-1 (H-type)): ≤0.25 µg/mL | MIC value against Clostridium perfringens (strain H14-2 (H-type)): 0.5 µg/mL (≈ 1.63 µM) | MIC value against Clostridium perfringens (strain H14-4 (H-type)): ≤0.25 µg/mL | MIC value against Clostridium perfringens (strain H15-1 (H-type)): ≤0.25 µg/mL | MIC value against Clostridium perfringens (strain H15-2 (H-type)): ≤0.25 µg/mL | MIC value against Clostridium perfringens (strain H15-3 (H-type)): 0.5 µg/mL (≈ 1.63 µM) | MIC value against Clostridium perfringens (strain H16 (H-type)): ≤0.25 µg/mL

C=C[C@]1(C)C[C@@H](OC(=O)CSCCN(CC)CC)[C@]2(C)[C@H](C)CC[C@]3(CCC(=O)[C@H]32)[C@@H](C)[C@@H]1O [TIA, Tiamulin]
MIC90 (Clostridium perfringens): 8 µg/mL (≈ 16.2 µM) | MIC50 (Clostridium perfringens (n=26), unit as printed for tiamulin): 0.5 µg/mL (≈ 1.01 µM) | MIC [1]: 0.5 µg/mL (≈ 1.01 µM) | MIC [2]: 0.5 µg/mL (≈ 1.01 µM) | MIC [3]: 4 µg/mL (≈ 8.1 µM) | MIC [4]: 4 µg/mL (≈ 8.1 µM) | MIC [5]: 0.5 µg/mL (≈ 1.01 µM) | MIC [6]: 8 µg/mL (≈ 16.2 µM) | MIC [7]: 0.5 µg/mL (≈ 1.01 µM) | MIC [8]: ≤ 0.25 µg/mL | MIC [9]: 8 µg/mL (≈ 16.2 µM) | MIC [10]: 0.5 µg/mL (≈ 1.01 µM) | MIC [11]: 0.5 µg/mL (≈ 1.01 µM) | MIC [12]: 0.5 µg/mL (≈ 1.01 µM) | MIC [13]: 0.5 µg/mL (≈ 1.01 µM) | MIC [14]: 0.5 µg/mL (≈ 1.01 µM) | MIC [15]: 4 µg/mL (≈ 8.1 µM) | MIC [16]: 4 µg/mL (≈ 8.1 µM) | MIC [17]: 0.5 µg/mL (≈ 1.01 µM) | MIC [18]: ≤ 0.25 µg/mL | MIC [19]: 4 µg/mL (≈ 8.1 µM) | MIC [20]: 8 µg/mL (≈ 16.2 µM) | MIC [21]: 8 µg/mL (≈ 16.2 µM) | MIC [22]: 4 µg/mL (≈ 8.1 µM) | MIC [23]: ≤ 0.25 µg/mL | MIC [24]: 4 µg/mL (≈ 8.1 µM) | MIC [25]: 4 µg/mL (≈ 8.1 µM) | MIC [26]: 4 µg/mL (≈ 8.1 µM)
